Laboratory results published in ChEMBL document CHEMBL1121376, “Antihypertensive (2-aminoethyl)thiourea derivatives. 2” (1980).
Activity calls are given as the source filed them. The rule behind the calls is not given here.

How the values were obtained:
Canis familiaris [1] = assay: Evaluation of antihypertensive activity renally hypertensive dog at dose 10,30,100mg/kg(po); Inactive; format: functional, organism-based; settings: Canis lupus familiaris
Canis familiaris [2] = assay: Evaluation of antihypertensive activity renally hypertensive dog at dose 10 mg/kg; format: functional, Canis lupus familiaris
Rattus norvegicus [3] = assay: Evaluation of decrease in heart rate (antihypertensive activity) in spontaneously hypertensive rats after 3-6h 0f peroral dose of 100 mg /kg; format: functional
Rattus norvegicus [4] = assay: Evaluation of antihypertensive activity in DOCA/salt hypertensive rats at peroral dose of 10 mg/kg; no effect on HR; Inactive; format: functional, organism-based; set-up: dose 10 mg/kg
Rattus norvegicus [5] = assay: Evaluation of antihypertensive activity in DOCA/salt hypertensive rats at peroral dose of 10,30,100 mg /kg; value ranges from 12-20%; format: functional
Rattus norvegicus [6] = assay: Evaluation of antihypertensive activity in spontaneously hypertensive rats at peroral dose of 10, 30,100 mg /kg; format: functional

Compound: NCC/N=C(\S)Nc1c(Cl)cccc1Cl
- Reduction in arterial blood pressure (Canis familiaris [1]): inactive
- Reduction in arterial blood pressure (Canis familiaris [2]): 7%
- Reduction in heart rate (Rattus norvegicus [3]): 12.7%
- Reduction in arterial blood pressure (Rattus norvegicus [4]): inactive
- Decrease in blood pressure (Rattus norvegicus [5]): 12%
- Reduction in blood pressure (Rattus norvegicus [6]): 12.7%
